The numbers were not newly measured in patent publication US5514673A, “Pharmaceutical composition containing lipophilic drugs” (priority 1993, dated 1996), which cites them from elsewhere.

For data set [1] the following is noted: in vivo.
The conditions of data set [2]: sublingual and buccal, sex hormone compositions.
The conditions of data set [3]: animal tests.
The conditions of data set [4]: for first pass effect: oral.
For data set [5] the following is noted: physiological saline solution.

Consider dimethyl-β-cyclodextrin, for which the “nephrotoxicity and haemolytic activity” value in data set [1] is “nephrotoxicity and haemolytic activity”. Also, in data set [2], the “effect on the absorption” value is “virtually no effect on the absorption”. In addition, the “influence on drug uptake” value in data set [3] was “adversely influence the drug uptake”.
On to `C[C@]12CC[C@@H]3c4ccc(O)cc4CC[C@H]3[C@@H]1CC[C@@H]2O` [17β-estradiol], for which, in data set [4], the oral effectiveness entry is “very limited oral effectiveness” and the first pass effect entry is on record as “high first pass effect”. Moreover, the “suitability of intranasal administration” value in data set [5] is “unsuitable”.
As to `CC(=O)[C@H]1CC[C@H]2[C@@H]3CCC4=CC(=O)CC[C@]4(C)[C@H]3CC[C@]12C` [Progesterone, progesterone], in data set [4], the oral effectiveness entry is “very limited oral effectiveness” and the first pass effect entry was “high first pass effect”.
